# Assay results reported in patent US20260263340A1, “Cosmetic Products and Cleaning Products Stabilized Against Microbial Attack” (Thor GmbH, priority 2023, published 2026).
# How the values were obtained:
# bacteria mixture 1 = assay: Repeated-inoculation microbiological stress test of all-purpose cleaner, bacteria mixture 1; type: cell-based; parameters: key to Bacterial growth after inoculation: 0: No growth; Minimal growth, 1 to 10 colonies visible over the entire streak; 2: Light growth, maximum 100 colonies; Moderate growth, maximum 300 to 400 colonies; Uniform growth, >400 colonies, single colonies still clearly recognizable; 5: Heavy growth, too many colonies to count, but no growth over the entire streak; 6: Full growth, barely any single colonies still apparent, growth over the entire streak; conditions: for Bacterial growth after inoculation: All-purpose cleaner, 6 d
# From the text: (§1) The tested cleaning composition was an all-purpose cleaner without preservatives and having a pH of 7.7, the skin lotion was a body lotion without preservatives and having a pH of 7.1, and the shampoo was a hair shampoo without preservatives and having a pH of 6.9.
# (§2) The cleaning composition was admixed with particular concentrations of guanidine carbonate and guanidine hydrochloride and homogenized. The body lotion and the hair shampoo were each admixed and homogenized with guanidine hydrochloride and with octane-1,2-diol alone or in combination.
# (§3) The batches of the products thus obtained were inoculated repeatedly at particular intervals with bacteria mixtures or yeast mixtures that are used as standard for microbiological stress tests of industrial products or cosmetic products (bacteria mixture 1 and 2, yeast mixture 1 and 2).
# (§4) The inoculum was added to the respective sample in each inoculation at 2% (v/w) as a fresh cell suspension in a physiological saline solution (0.9% NaCl). The cell count of the inoculum added was 10^8-10^9/ml for the bacteria mixtures, 10^7-10^8/ml for the yeast mixtures, consisting in equal parts of the individual bacteria strains or yeast strains.
# (§5) The cell suspension of the bacteria mixtures was produced by growing the individual bacteria at 30° C. for 24 h in liquid culture on a shaker. The medium used to grow the bacteria from bacteria mixtures 1 and 2 was Müller-Hinton liquid medium. The bacteria from bacteria mixture 3 were grown in Müller-Hinton liquid medium that had been adjusted to pH 9.5 to 9.7 with an alkaline buffer solution beforehand. After growing, the individual liquid cultures were centrifuged, and the cells were resuspended in physiological saline solution. In order to adjust the mixtures to a total cell count of 10^8 to 10^9/ml, the individual bacteria suspensions, if necessary, were diluted accordingly before being combined with saline solution. The cell count of the inoculum suspensions was determined in each case by chamber counting.
# (§6) In the examples, the samples were inoculated three times at weekly intervals with the respective cell suspensions (2% v/w) and the evolution of the bacteria or yeasts was followed by a semiquantitative evaluation method. After each inoculation, microbial infestation in the samples was evaluated in each case after incubation at 30° C. for 6 to 7 days. For this purpose, an aliquot was taken from each sample after homogenization using a sterile plastic inoculation loop (10 μl) and streaked evenly on agar plates (bacteria mixture 1 and 2 on tryptic soy agar, bacteria mixture 3 on DSMZ 31 alkaline nutrient agar, Sabouraud glucose-agar in the case of yeasts). The streaked agar plates were then incubated at 30° C. for 48 hours (bacteria mixture 1 and 2) or 5 to 7 days (bacteria mixture 3), or at 25° C. for 72 hours (yeast mixtures). After incubation, the bacteria colonies or yeast colonies that have grown on the agar plates were visually evaluated and quantified according to the following scheme:
# Inoculation 2% (w/v) with bacteria mixture 1, cell count 10^9/ml
# yeast mixture 1 = assay: Repeated-inoculation microbiological stress test of all-purpose cleaner, yeast mixture 1; type: cell-based; parameters: key to Yeast growth after inoculation: 0: No growth; Minimal growth, 1 to 10 colonies visible over the entire streak; 2: Light growth, maximum 100 colonies; Moderate growth, maximum 300 to 400 colonies; Uniform growth, >400 colonies, single colonies still clearly recognizable; 5: Heavy growth, too many colonies to count, but no growth over the entire streak; 6: Full growth, barely any single colonies still apparent, growth over the entire streak; conditions: for Yeast growth after inoculation: All-purpose cleaner, 6 d
# From the text: as §1, §2, §3, §4
# The cell suspension of the yeast mixtures was produced by growing the yeast strains on Sabouraud glucose-agar at 25° C. for 48 hours and washing down the cell lawn in each case with physiological saline solution (0.9% NaCl). Further steps for establishment of a cell count of the inoculum suspension of 10^7/ml to 10^8/ml were effected analogously to the production of the bacteria suspensions.
# as §6
# Inoculation 2% (w/v) with yeast mixture 1, cell count 10^8/ml
# bacteria mixture 3 = assay: Repeated-inoculation microbiological stress test of all-purpose cleaner, bacteria mixture 3 (alkaliphilic bacteria); type: cell-based, Nesterenkonia spec.; parameters: key to Bacteria growth after inoculation: 0: No growth; Minimal growth, 1 to 10 colonies visible over the entire streak; 2: Light growth, maximum 100 colonies; Moderate growth, maximum 300 to 400 colonies; Uniform growth, >400 colonies, single colonies still clearly recognizable; 5: Heavy growth, too many colonies to count, but no growth over the entire streak; 6: Full growth, barely any single colonies still apparent, growth over the entire streak; conditions: for Bacteria growth after inoculation: All-purpose cleaner, 7 d
# From the text: as §1, §2
# The cleaning composition was additionally inoculated repeatedly at particular intervals with a special inoculum consisting of a mixture of alkaliphilic bacteria (bacteria mixture 3) that had been isolated from a bacterially contaminated cleaning composition having a pH of 9.8.
# as §4, §5, §6
# Inoculation 2% (w/v) with bacteria mixture 3, cell count 10^9/ml
# [1] = +1000 ppm guanidine carbonate (656 ppm guanidine) pH 9.3, 1. inoculation
# [2] = +1000 ppm guanidine carbonate (656 ppm guanidine) pH 9.3, 2. inoculation
# [3] = +1000 ppm guanidine carbonate (656 ppm guanidine) pH 9.3, 3. inoculation
compound,measurement,setting,value
N=C(N)N.N=C(N)N.O=C(O)O [guanidine carbonate],Bacterial growth after inoculation,"bacteria mixture 1; +1000 ppm guanidine carbonate (656 ppm guanidine) pH 9.2, 1. inoculation",0
same,Bacterial growth after inoculation,"bacteria mixture 1; +1000 ppm guanidine carbonate (656 ppm guanidine) pH 9.2, 2. inoculation",0
same,Bacterial growth after inoculation,"bacteria mixture 1; +1000 ppm guanidine carbonate (656 ppm guanidine) pH 9.2, 3. inoculation",5
same,Bacterial growth after inoculation,"bacteria mixture 1; +1500 ppm guanidine carbonate (984 ppm guanidine) pH 9.5, 1. inoculation",0
same,Bacterial growth after inoculation,"bacteria mixture 1; +1500 ppm guanidine carbonate (984 ppm guanidine) pH 9.5, 2. inoculation",0
same,Bacterial growth after inoculation,"bacteria mixture 1; +1500 ppm guanidine carbonate (984 ppm guanidine) pH 9.5, 3. inoculation",0
same,stability of the all-purpose cleaner to microbial infestation by bacteria,bacteria mixture 1; addition of 659 ppm of guanidine in the form of guanidine carbonate at pH 9.2 or pH 9.5,distinct improvement in stability
same,Yeast growth after inoculation,yeast mixture 1; [1],"1 (Minimal growth, 1 to 10 colonies visible over the entire streak)"
same,Yeast growth after inoculation,yeast mixture 1; [2],"1 (Minimal growth, 1 to 10 colonies visible over the entire streak)"
same,Yeast growth after inoculation,yeast mixture 1; [3],"3 (Moderate growth, maximum 300 to 400 colonies)"
same,Yeast growth after inoculation,"yeast mixture 1; +2500 ppm guanidine carbonate (1640 ppm guanidine) pH 9.9, 1. inoculation",0
same,Yeast growth after inoculation,"yeast mixture 1; +2500 ppm guanidine carbonate (1640 ppm guanidine) pH 9.9, 2. inoculation",0
same,Yeast growth after inoculation,"yeast mixture 1; +2500 ppm guanidine carbonate (1640 ppm guanidine) pH 9.9, 3. inoculation",0
same,Yeast growth after inoculation,"yeast mixture 1; +5000 ppm guanidine carbonate (3280 ppm guanidine) pH 10.4, 1. inoculation",0
same,Yeast growth after inoculation,"yeast mixture 1; +5000 ppm guanidine carbonate (3280 ppm guanidine) pH 10.4, 2. inoculation",0
same,Yeast growth after inoculation,"yeast mixture 1; +5000 ppm guanidine carbonate (3280 ppm guanidine) pH 10.4, 3. inoculation",0
same,stability of the all-purpose cleaner to microbial infestation by yeasts,yeast mixture 1; addition of 659 ppm of guanidine in the form of guanidine carbonate at pH 9.9,distinct improvement in stability
same,Bacteria growth after inoculation,"bacteria mixture 3; +500 ppm guanidine carbonate (328 ppm guanidine) pH 9.1, 1. inoculation",0
same,Bacteria growth after inoculation,"bacteria mixture 3; +500 ppm guanidine carbonate (328 ppm guanidine) pH 9.1, 2. inoculation","2 (Light growth, maximum 100 colonies)"
same,Bacteria growth after inoculation,"bacteria mixture 3; +500 ppm guanidine carbonate (328 ppm guanidine) pH 9.1, 3. inoculation","2 (Light growth, maximum 100 colonies)"
same,Bacteria growth after inoculation,bacteria mixture 3; [1],0
same,Bacteria growth after inoculation,bacteria mixture 3; [2],0
same,Bacteria growth after inoculation,bacteria mixture 3; [3],"1 (Minimal growth, 1 to 10 colonies visible over the entire streak)"
same,Bacteria growth after inoculation,"bacteria mixture 3; +2500 ppm guanidine carbonate (1640 ppm guanidine) pH 10.0, 1. inoculation",0
same,Bacteria growth after inoculation,"bacteria mixture 3; +2500 ppm guanidine carbonate (1640 ppm guanidine) pH 10.0, 2. inoculation",0
same,Bacteria growth after inoculation,"bacteria mixture 3; +2500 ppm guanidine carbonate (1640 ppm guanidine) pH 10.0, 3. inoculation",0
same,Bacteria growth after inoculation,"bacteria mixture 3; +5000 ppm guanidine carbonate (3280 ppm guanidine) pH 10.5, 1. inoculation",0
same,Bacteria growth after inoculation,"bacteria mixture 3; +5000 ppm guanidine carbonate (3280 ppm guanidine) pH 10.5, 2. inoculation",0
same,Bacteria growth after inoculation,"bacteria mixture 3; +5000 ppm guanidine carbonate (3280 ppm guanidine) pH 10.5, 3. inoculation",0
same,stability of the all-purpose cleaner to microbial infestation by bacteria,bacteria mixture 3; addition of 330 ppm of guanidine in the form of guanidine carbonate at pH 9.1,distinct improvement in stability
